# Data published in patent publication EP4813463A2, “TYK2 INHIBITORS AND COMPOSITIONS AND METHODS THEREOF” (Lynk Pharmaceuticals Co. Ltd., priority 2023, dated 2024).
# Tested on: Anti-CD40-induced colitis
# Experiment: SCID mice colitis by anti-CD40-driven pharmacodynamics study
# Assay type: in vivo, C.B17-SCID mice
# Details: for Colon density / Colon length (cm) / Colon weight: Day 5, mean ± SEM, n = 10
# Method: This study aimed to obtain the pharmacodynamics of the test article in colitis model by Anti-CD40-driven after oral administration. C.B17-SCID mice obtained from the Zhejiang Vital River Laboratory Animal Technology Co., Ltd. Starting on Day -1 and continuing daily through Day 4, mice (n = 10 per group) were dosed with 0 (vehicle control), 15, 45, or 100 mg/kg PO BID compound 7A in vehicle containing 5% DMSO, 65% PEG400, and 30% DDH2O (v/v/v). In addition, on Day 0, 30 minutes after administration, colitis was induced with a single intraperitoneal injection of 200 µL of anti-CD40 mAb (BE0016-2, BioXcell) in DPBS, the Sham group mice were intraperitoneally injected with 200 µL of DPBS.
# Each mouse was scored daily for pathological features, including stool consistency, presence of blood stool, and body weight loss. Individual scores were combined to generate the Disease Activity Index (DAI) which was calculated daily for each mouse, the maximum score was 12. On Day 5, all animals were euthanized, colon was collected for measuring colon index (weight, length, and density).
smiles,measurement,setting,value
"[2H]C([2H])([2H])NC(=O)c1cnc(NC(=O)C2CC2)cc1Nc1cnn2ccc([C@H](O)C(F)(F)F)c(OC)c12 [Example 7A, (S)-6-(cyclopropanecarboxamido)-4-((4-methoxy-5-(2,2,2-trifluoro-1-hydroxyethyl)pyrazolo[1,5-a]pyridin-3-yl)amino)-N-(methyl-d3)nicotinamide]",effect on Anti-CD40-induced colitis,"15, 45, or 100 mg/kg PO BID, result in words",significant protective effect
same,Colon density,15mpk PO BID,46.99 ± 2.71 mg/cm
same,Colon length (cm),15mpk PO BID,5.61±0.20 cm
same,Colon weight,15mpk PO BID,260.20 ± 10.58 mg
same,Colon density,45mpk PO BID,37.00 ± 1.36 mg/cm
same,Colon length (cm),45mpk PO BID,6.34±0.13 cm
same,Colon weight,45mpk PO BID,234.20 ± 9.04 mg
same,Colon density,100mpk PO BID,29.23 ± 0.91 mg/cm
same,Colon length (cm),100mpk PO BID,7.15±0.15 cm
same,Colon weight,100mpk PO BID,208.40 ± 5.53 mg
same,body weight loss,"FIG. 1. A, result in words",reduction
same,DAI score,"FIG. 1. B, result in words",reduction
